According to article PMC5900025, “Naphthoquinone Derivatives as Scaffold to Develop New Drugs for Tuberculosis Treatment” (Frontiers in Microbiology, 2018):
Values after ≈ are worked out from the molar mass of the structure shown.

Key:
[1] = system: M. tuberculosis mono-resistant to INH (INHR, ATCC 35822), katG S315T; format: cell-based, Mycobacterium tuberculosis
[2] = system: M. tuberculosis mono-resistant to RIF (RMPR, ATCC 35838), rpoB H526Y; format: cell-based, Mycobacterium tuberculosis

Row | SMILES | MIC [1] [µM] | MIC [2] [µM]
1 | O=C1C(Cl)=C(Cl)C(=O)c2ccccc21 [Compound 1, 2,3-Dichloronaphthalene-1,4-dione] | 110.6 (≈ 25.1 µg/mL) | 110.6 (≈ 25.1 µg/mL)
2 | CC1(C)CCC2=C(O1)C(=O)c1ccccc1C2=O [Compound 2, 2,2-Dimethyl-3,4-dihydro-2H-benzo[g]chromene-5, 10-dione] | 206.6 (≈ 50.1 µg/mL) | 206.6 (≈ 50.1 µg/mL)
3 | CC1(C)CC2=C(O1)C(=O)c1ccccc1C2=O [Compound 3, 2,2-Dimethyl-2,3-dihydronaphtho[2,3-b]furan-4,9-dione] | 54.8 (≈ 12.5 µg/mL) | 54.8 (≈ 12.5 µg/mL)
4 | C=CCOC1=CC(=O)c2ccccc2C1=O [Compound 4, 2-(Allyloxy)naphthalene-1,4-dione] | 234 (≈ 50.1 µg/mL) | 234 (≈ 50.1 µg/mL)
5 | NC1=CC(=O)c2ccccc2C1=O [Compound 5, 2-Aminonaphthalene-1,4-dione] | 36.1 (≈ 6.25 µg/mL) | 36.1 (≈ 6.25 µg/mL)
6 | O=C1C=C(Nc2ccccc2)C(=O)c2ccccc21 [Compound 6, 2-(Phenylamino)naphthalene-1,4-dione] | 100.4 (≈ 25 µg/mL) | 12.5 (≈ 3.12 µg/mL)
7 | NNC(=O)c1ccncc1 [INH, isoniazid, reference compound] | 14.6 (≈ 2 µg/mL) | ≤0.219
8 | CO[C@H]1/C=C/O[C@@]2(C)Oc3c(C)c(O)c4c(O)c(c(/C=N/N5CCN(C)CC5)c(O)c4c3C2=O)NC(=O)/C(C)=C\C=C\[C@H](C)[C@H](O)[C@@H](C)[C@@H](O)[C@@H](C)[C@H](OC(C)=O)[C@@H]1C [RIF, rifampicin, reference compound] | 0.304 (≈ 0.25 µg/mL) | 622.2 (≈ 512 µg/mL)
